Measured values published in patent publication US20030181449A1 (priority 2003, published 2003).
Several values for one entry are separate records, joined by “and”; a condition that tells them apart may be missing. Identical values can stand only once. Like-named read-outs stand apart in the source and are kept apart here.

Columns and labels:
[1] = biological target: T1, NMDA receptor glycine site (Rattus norvegicus, UniProt P35439); test: Test A: Inhibition of binding of [3H]-MDL105,519 to brain membranes
T1 construct: The rat brain membranes used in the experiments were obtained from Analytical Biological Services Inc; tissue Analytical Biological Services Inc; host or cells: rat brain membranes (cerebral cortex and hippocampus, male Sprague Dawley rats)
Excerpt: Test A: Inhibition of Binding of [^3H]-MDL105,519:
Binding of compounds to the NMDA receptor glycine site may be assessed by measuring the ability of test compounds to inhibit the binding of tritiated MDL105,519 to brain membranes bearing the receptor.
Briefly, fresh brain tissue including cerebral cortex and hippocampus from male Sprague Dawley rats was homogenized in 0.32 M sucrose and centrifuged at low speed to separate cellular membranes from other cellular components. The membranes were then washed 3 times using deionized water, followed by treatment with 0.04% Triton X-100. Finally, membranes were washed six times in 50 mM Tris citrate buffer, pH 7.4, and frozen at −80° C. until use.
[^3H]MDL105,519 (72 Ci/mmol) was purchased from Amersham. Cold MDL105,519 was purchased from Sigma/RBI. […] On the day of the experiment, brain membranes were thawed at room temperature and suspended in 50 mM tris acetate buffer, pH 7.4 (“TAB”). Seventy-five micro grams per milliliter protein (by using the BioRad dye) were used for competition binding. The experiments were carried out using 96-well plates. […] Non specific binding was determined by using 100 μM of unlabeled MDL105,519. […] After incubation, unbound [^3H]MDL105,519 was removed by filtration onto GF/B Unifilter plates using a Packard harvester. Filters were washed four times with ice cold TAB (total of 1.2 mL buffer). The plates were dried overnight at room temperature and bound radioactivity was measured on a Packard TopCount after the addition of 45 μL per well of the MICROSCINT O.
Human Brain Membranes: Human brain membranes were obtained from Analytical Biological Services Inc., and assays were performed as described for rat membranes.
Data analysis: Data was analyzed using a Microsoft Excel spreadsheet and GraphPad Prizm software and potency of compounds is expressed as the Ki (nM).

[2] = test system: formalin-induced nociceptive behaviors in rats; test: Test B: Formalin test (formalin-induced paw flinches); type: in vivo, rat; details: dose 200 (unit not given), dosed three hours prior to formalin
Excerpt: The Formalin test is an assay that assesses the capacity of a compound to inhibit formalin-induced nociceptive behaviors in rats (D. Dubuisson, et al., Pain 4, 161-174 (1977); H. Wheeler-Aceto et al., Psychopharmacology 104, 3544 (1991); T. J. Coderre, et al., Pain 54, 43-50 (1993)). In the test, two distinctive phases of formalin-induced behaviors are observed. A first phase response, caused by acute nociception to the noxious chemical (formalin) injected into the paw, occurs between zero and five minutes. A quiescent period of 5 to 15 min post injection follows. After the quiescent period a second phase response, caused by sensitization of the central neurons in the dorsal horn, occurs after 15 minutes and lasts up to 60 minutes. Sensitization of the central neurons in the spine augments a noxious afferent input and causes a stronger pain barrage to be transmitted to the brain. Therefore, inhibition of the second phase response indicates a central mechanism of drug action.
The procedure for the formalin test is as follows: male rats are placed in a plexiglass chamber and observed for 30-45 min. to observe their baseline activity. Animals are either pretreated with vehicle or with different doses of a test compound. Animals are dosed with vehicle or test compound three hours prior to injection of 0.05 mL of sterile 1% formalin under the dorsal skin of a hind paw. The number of paw flinches (responses) during the first phase (0-5 min.) and the second phase (20-35 min.) are scored and recorded. Flinch response is compared with the mean score of a saline control group and calculated as percentage inhibition. The ED50 is the dose of compound which produces 50% inhibition of nociceptive response in the first or second phase response. First phase responses may be inhibited by compounds that act peripherally and by compounds that act centrally. Second phase response are inhibited by centrally active compounds.
Student's t-test was used for statistical analysis to determine the significance of compound effects. Data are reported as a dose that yielded a % inhibition of a response.

[3] = test system: CCI rats (thermal hyperalgesia); test: Test C: Neuropathic pain model (Chronic Constriction Injury), thermal hyperalgesia, paw withdrawal latency; type: in vivo, rat; details: oral; for Test C (% Inh.): percent decrease in hyperalgesia: at the MED; for Test C MED (minimum effective dose): three times daily for 5 days
Excerpt: Test C: Neuropathic Pain Model (Chronic Constriction Injury):
The anti-hyperalgesic properties of a compound may be tested with the Chronic Constriction Injury (“CCI”) model. The test is a model for neuropathic pain associated with nerve injuries that can arise directly from trauma and compression, or indirectly from a wide range of diseases such as infection, cancer, metabolic conditions, toxins, nutritional deficiencies, immunological dysfunction, and musculoskeletal changes. In the model a unilateral peripheral hyperalgesia is produced in rats by nerve ligation (G. J. Bennett, et al., Pain 33, 87-107 (1988)).
Procedurally, Sprague-Dawley rats (250-350 g) are anesthetized with sodium pentobarbital and the common sciatic nerve is exposed at the level of the mid thigh by blunt dissection through the biceps femoris. A section of nerve (about 7 mm), proximal to the sciatic trifucation, is freed of tissue and ligated at four positions with chromic gut suture. The suture is tied with about 1 mm spacing between ligatures. The incision is closed in layers and the animals are allowed to recuperate. Thermal hyperalgesia is measured using a paw-withdrawal test (K. Hargreaves, et al., Pain 32, 77-88 (1988)). To perform the test, animals are habituated on an elevated glass floor. A radiant heat source is aimed at the mid-plantar hindpaw (sciatic nerve territory) through the glass floor with a 20 second cut-off used to prevent injury to the skin. The latencies for the withdrawal reflex in both hind paws are recorded.
Injured paws with ligated nerves show shorter paw withdrawal latencies compared to the uninjured or sham operated paws. Responses to test compounds are evaluated at different times after oral administration to determine the onset and duration of compound effect. When performing the test, groups of CCI rats receive either vehicle or the test compound orally three times daily for 5 days. Paw withdrawal latencies are measured each day 10 min before and 2 or 3 hr. after the first daily dose. Compound efficacy is expressed as mean percentage decrease of hyperalgesia compared to that of vehicle-treated animals, calculated as follows:
(Mean of vehicle group−Mean of compound group)×100/(Mean of vehicle group).
Data analysis was performed by the multiple means comparison test (Dunnett's test) and results are expressed and compound potencies are expressed as the MED (minimum effective dose), in mg/Kg/day, that yields a percent (%) decrease in hyperalgesia that is statistically significant.

[4] = inhibition of 1.2 nM [3H]MDL105,519 binding, brain membranes (rat or human not given)

SMILES | Ki [1, 4] | other results
CON(C)C(=O)c1cccc(Cn2nc(O)c3[nH]c4cc(Cl)ccc4c(=O)c3c2=O)c1 | 0.065 µM | 
CC(C)NC(=O)c1ccc(Cn2nc(O)c3[nH]c4cc(Cl)ccc4c(=O)c3c2=O)cc1 [EX. 31, 7-chloro-4-hydroxy-2-(4-isopropylcarboxamide)phenylmethyl-1,2,5,10-tetrahydropyridazino[4,5-b]quinoline-1,10-dione] | 0.041 µM | 
O=C(NCc1ccco1)c1ccc(Cn2nc(O)c3[nH]c4cc(Cl)ccc4c(=O)c3c2=O)cc1 [Ex. 3, 7-Chloro-4hydroxy-2-(4-(furan-2-ylmethyl)aminocarbonyl)-benzyl-1,2,5,10-tetrahydropyridazino[4,5-b]quinoline-1,10-dione] |  | Ki [1]: 0.153 µM; Test B First phase Dose (% Inh.): % inhibition of nociceptive response ([2]; first phase (0-5 min)): 200 (33%); Test B Second phase Dose (% Inh.): % inhibition of nociceptive response ([2]; second phase (20-35 min)): 200 (−18%); Test C (% Inh.): percent decrease in hyperalgesia [3]: 96%; Test C MED (minimum effective dose) [3]: 30 mg/kg/day
O=c1c2ccc(Cl)cc2[nH]c2c(O)nn(Cc3ccc4nc[nH]c4c3)c(=O)c12 [Ex. 5, 7-Chloro-4-hydroxy-2-(benzimidazol-5-ylmethyl)-1,2,5,10-tetrahydropyridazino[4,5-b]quinoline-1,10-dione methanesulfonate] | 0.117 µM | 
Cc1cc(Cn2nc(O)c3[nH]c4cc(Cl)ccc4c(=O)c3c2=O)ccc1O [Ex. 6, 7-Chloro-4-hydroxy-2-(4-hydroxy-3-methyl-benzyl)-1,2,5,10-tetrahydropyridazino[4,5-b]quinoline-1,10-dione] | 0.0679 µM and 0.0625 µM | 
CSc1ccccc1Cn1nc(O)c2nc3cc(Cl)ccc3c(O)c2c1=O [Ex. 7, 7-Chloro-4,10-dihydroxy-2-[(2-methylthio)phenylmethyl]-2-hydropyridazino[4,5-b]quinoline-1-one] | 0.111 µM | melting point: 290 to 292 °C
COC(=O)c1c(OC)cc(Cn2nc(O)c3[nH]c4cc(Cl)ccc4c(=O)c3c2=O)cc1OC [Ex. 8, 7-Chloro-2-(4-(2,6-dimethoxy)methylbenzoate)4hydroxy-1,2,5,10-tetrahydropyridazino[4,5-b]quinoline-1,10-dione] | 0.035 µM | 
CC(C)OC(=O)c1ccc(Cn2nc(O)c3[nH]c4cc(Cl)ccc4c(=O)c3c2=O)cc1 [Ex. 9, 7-Chloro-4-hydroxy-2-(4-iso-propoxycarbonylbenzyl)-1,2,5,10-tetrahydropyridazino[4,5-b]quinoline-1,10-dione] | 0.091 µM | 
CN(C)C(=O)Nc1ccc(Cn2nc(O)c3[nH]c4cc(Cl)ccc4c(=O)c3c2=O)cc1 [Ex. 11, 7-chlorohydroxy-2-(4-dimethylaminocarboxamide)phenylmethyl-1,2,5,10-tetrahydropyridazino[4,5-b]quinoline-1,10-dione] |  | Test C (% Inh.): percent decrease in hyperalgesia [3]: 80%; Test C MED (minimum effective dose) [3]: 15 mg/kg/day
O=C(Nc1ccc(Cn2nc(O)c3[nH]c4cc(Cl)ccc4c(=O)c3c2=O)cc1)N1CCCC1 [Ex. 13, 7-chloro-4-hydroxy-2-(4pyrrolidinylcarboxamide)phenylmethyl-1,2,5,10-tetrahydropyridazino[4,5-b]quinoline-1,10-dione] | 0.0675 µM | 
O=C(Nc1cccc(Cn2nc(O)c3[nH]c4cc(Cl)ccc4c(=O)c3c2=O)c1)N1CCCC1 [Ex. 15, 7-Chloro-4-hydroxy-2-(3-pyrrolidinylcarboxamide)phenylmethyl-1,2,5,10-tetrahydropyridazino[4,5-b]quinoline-1,10-dione] | 0.0156 µM | 
O=C(Nc1ccccc1)Nc1cccc(Cn2nc(O)c3[nH]c4cc(Cl)ccc4c(=O)c3c2=O)c1 [Ex. 18, 7-chloro-4-hydroxy-2-(3-phenylaminocarboxamide)phenylmethyl-1,2,5,10-tetrahydropyridazino[4,5-b]quinoline-1,10-dione] | 0.0799 µM | 

The next lines start with results.

Ki [1, 4] | SMILES | other results
0.0333 µM | O=C(Nc1cccc(Cn2nc(O)c3[nH]c4cc(Cl)ccc4c(=O)c3c2=O)c1)NC1CCCCC1 [Ex. 19, 7-chloro-4-hydroxy-2-(3-cyclohexylaminocarboxamide)phenylmethyl-1,2,5,10-tetrahydropyridazino[4,5-b]quinoline-1,10-dione] | 
0.199 µM | O=c1c2ccc(Cl)cc2[nH]c2c(O)nn(Cc3ccc(I)cc3)c(=O)c12 [Ex. 20, 7-Chloro-4-hydroxy-2-(4-iodophenylmethyl)-1,2,5,10-tetrahydropyridazino[4,5-b]quinoline-1,10-dione] | 
0.001 µM | O=c1c2ccc(Cl)cc2[nH]c2c(O)nn(Cc3ccc(C#CCO)cc3)c(=O)c12 [Ex. 21] | 
0.141 µM | COCCNC(=O)c1ccc(Cn2nc(O)c3[nH]c4cc(Cl)ccc4c(=O)c3c2=O)cc1 [Ex. 23] | 
0.126 µM | CNC(=O)c1cccc(Cn2nc(O)c3[nH]c4cc(Cl)ccc4c(=O)c3c2=O)c1 [Ex. 25, 7-Chloro-4-hydroxy-2-[3-(methylaminocarbonyl)-benzyl]-1,2,5,10-tetrahydropyridazino[4,5-b]quinoline-1,10-dione] | 
0.191 µM | COCCN(CCOC)C(=O)c1cccc(Cn2nc(O)c3[nH]c4cc(Cl)ccc4c(=O)c3c2=O)c1 [Ex. 27, 7-Chloro-4-hydroxy-2-[3-(di-(2-methoxy)ethyl)aminocarbonylbenzyl]-1,2,5,10-tetrahydropyridazino[4,5-b]quinoline-1,10-dione] | 
0.088 µM | O=C(c1ccc(Cn2nc(O)c3[nH]c4cc(Cl)ccc4c(=O)c3c2=O)cc1)N1CCOCC1 [Ex. 29, 7-Chloro-4-hydroxy-2-[4-(morpholine-4-carbonyl)-benzyl]-1,2,5,10-tetrahydropyridazino[4,5-b]quinoline-1,10-dione] | 
0.098 µM | CC(=O)Nc1ccc(Cn2nc(O)c3[nH]c4cc(Cl)ccc4c(=O)c3c2=O)cc1 [Ex. 30, 7-Chloro-4-hydroxy-2-[4-(methylcarbonyl-amino)-benzyl]-1,2,5,10-tetrahydropyridazino[4,5-b]quinoline-1,10-dione] | 
